What was measured:
[1] = Hepatocyte binding by RED device; assay type: in vitro ADME
Protocol: The blood cell partitioning was calculated as follows. […] Plasma, liver microsomes and hepatocyte binding by RED device The stability of the compounds in plasma, liver microsomes and hepatocyte were studied to ensure the reliability of the binding data. Hepatocyte was deactivated by leaving them on a bench for 2 days and going through a freeze thaw cycle thereafter. […] Natural logarithm of peak area ratios (compound peak area normalized by IS peak area) were plotted against time and half-life calculated. The spiked plasma solutions, microsomes and hepatocytes (400 µL) after observing stability were placed into the sample chamber (indicated by the red ring) with 400 µL of PBS into the adjacent chamber. […] The experimental procedure outlined in the Thermo Scientific RED device systems brochure was adopted in the present study . The several positive controls were assayed (Table S4). […] For control experiments, NADPH, UDPGA and/or liver microsomes were omitted from these incubations. […] InVitroGROTM HT Medium was used for thawing suspension of cryopreserved hepatocytes. Incubations were conducted in a 96-well flat-bottom polystyrene plate in duplicate. […] 60, 90, 120 minutes by the addition of 4 folds ACN containing berberine chloride as internal standard 5

OATP2B1 = target: T1, OATP2B1 (Homo sapiens, UniProt O94956); experiment: OATP substrate identification, uptake in stably transfected HEK293 cells; details: for uptake in cells transfected with OATP2B1 versus WT cells: 1 and 10 μM, 10 mins
T1 sequence (O94956 1-709): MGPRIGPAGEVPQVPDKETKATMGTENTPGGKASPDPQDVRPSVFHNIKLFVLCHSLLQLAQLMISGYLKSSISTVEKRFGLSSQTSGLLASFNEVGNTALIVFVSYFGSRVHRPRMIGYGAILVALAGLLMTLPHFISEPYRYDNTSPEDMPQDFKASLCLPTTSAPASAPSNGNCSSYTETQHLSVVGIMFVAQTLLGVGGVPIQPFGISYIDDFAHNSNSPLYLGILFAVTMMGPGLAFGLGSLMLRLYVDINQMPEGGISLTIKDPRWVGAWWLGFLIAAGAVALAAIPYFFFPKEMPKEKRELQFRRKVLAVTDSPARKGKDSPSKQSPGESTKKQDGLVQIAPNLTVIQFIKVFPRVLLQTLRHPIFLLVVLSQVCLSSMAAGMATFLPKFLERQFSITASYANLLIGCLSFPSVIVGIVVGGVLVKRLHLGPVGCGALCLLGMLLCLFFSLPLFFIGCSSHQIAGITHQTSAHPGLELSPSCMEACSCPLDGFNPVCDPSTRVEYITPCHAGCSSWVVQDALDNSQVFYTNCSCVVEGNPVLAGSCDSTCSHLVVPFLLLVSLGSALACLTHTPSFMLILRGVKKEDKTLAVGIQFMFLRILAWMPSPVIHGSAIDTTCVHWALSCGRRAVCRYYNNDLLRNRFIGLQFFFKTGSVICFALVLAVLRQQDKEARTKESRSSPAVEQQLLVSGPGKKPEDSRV
Protocol: (§1) Daily changes of medium were performed and on the second day after seeding using medium containing 10 mM sodium butyrate.
(§2) Stably transfected HEK cells and control vector-transfected HEK293 cells were first washed (3 × 1 mL) with prewarmed HBSS (pH 7.4) and then were incubated with 250 μL of HBSS containing compounds at concentrations of 1 and 10 μM. Cells were incubated for 10 mins at 37 °C for all experiments. After incubation, uptake was stopped by aspirating the incubation solution and washing each well 3 times with 200 μL of ice-old HBSS. The cells were lysed in 150 μL of 1 M NaOH for 30 mins, and then neutralized by adding equal volumes of 1 M HCl.
(§3) The following equations (3 and 4) were used to calculate the uptake rates (U, pmol/mg/min) and the OATP1B1, OATP1B3, OATP2B1 and OATP1A2 uptake ratio (UR):3 U=Clysate/P×T 4 UR=UOATP1B1/1B3/2B1/1A2/UHEK293−MOCK where C lysate is the compound concentration in cell lysates. P is the protein concentration in cell lysates. T is the incubation time. U OATP1B1/1B3/2B1/1A2 is the uptake rate obtained in HEK293 stably transfected OATP1B1, OATP1B3, OATP2B1 or OATP1A2 transportation. U HEK293-MOCK is the uptake rate obtained in control vector-transfected HEK293 transportation.

OATP1B3 = target: T2, OATP1B3 (Homo sapiens, UniProt Q9NPD5); experiment: as above; details: 1 and 10 μM, 10 mins
T2 sequence (Q9NPD5 1-702): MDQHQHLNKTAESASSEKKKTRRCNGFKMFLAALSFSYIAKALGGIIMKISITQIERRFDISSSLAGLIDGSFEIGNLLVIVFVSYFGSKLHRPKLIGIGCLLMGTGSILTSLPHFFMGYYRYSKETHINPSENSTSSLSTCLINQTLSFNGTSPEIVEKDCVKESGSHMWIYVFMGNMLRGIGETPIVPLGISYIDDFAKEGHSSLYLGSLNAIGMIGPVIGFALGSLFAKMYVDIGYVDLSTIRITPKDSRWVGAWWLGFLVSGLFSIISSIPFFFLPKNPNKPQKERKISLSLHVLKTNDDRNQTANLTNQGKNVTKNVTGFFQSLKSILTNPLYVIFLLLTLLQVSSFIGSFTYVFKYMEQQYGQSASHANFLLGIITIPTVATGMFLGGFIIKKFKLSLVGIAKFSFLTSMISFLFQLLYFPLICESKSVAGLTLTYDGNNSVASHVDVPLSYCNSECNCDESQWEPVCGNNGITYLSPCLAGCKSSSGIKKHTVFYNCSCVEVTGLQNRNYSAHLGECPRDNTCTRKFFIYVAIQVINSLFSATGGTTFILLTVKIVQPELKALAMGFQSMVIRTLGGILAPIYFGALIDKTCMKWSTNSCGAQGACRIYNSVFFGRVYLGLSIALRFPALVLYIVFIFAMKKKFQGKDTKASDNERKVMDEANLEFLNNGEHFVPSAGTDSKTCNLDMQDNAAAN
Protocol: as §1, §2, §3

[2] = human deactivated hepatocytes 0.5 million cells/mL
[3] = mouse deactivated hepatocytes 0.5 million cells/mL

| Compound | f u,hep, % [1, 2] | f u,hep, % [1, 3] | OATP2B1 substrate identification (OATP2B1) | uptake in cells transfected with OATP2B1 versus WT cells (OATP2B1) | uptake by OATP1B3 transfected HEK293 versus WT cells (OATP1B3) |
| --- | --- | --- | --- | --- | --- |
| COCCOCCn1c2ccccc2c2cc(/C=C/c3cc[n+](C)c4ccccc34)ccc21.[I-] [SLM, (E)-4-(2-(9-(2-(2-methoxyethoxy)ethyl)-9H-carbazol-3-yl)-vinyl)-1-methyl-quinolin-1-iumiodide] | 11.0 ± 0.870^$$ % | 15.0 ± 4.60% | substrates | doubled | no significant differences |
| COCCOCCn1c2ccccc2c2cc(/C=C/c3cc[n+](CCO)c4ccccc34)ccc21 [SLOH, (E)-1-(2-hydroxyethyl)-4-(2-(9-(2-(2-metho-xyethoxy)-ethyl)-9H-carbazol-3-yl)vinyl) quinolin-1-ium chloride] | 5.50 ± 0.730^$$ % | 16.0 ± 5.50% | substrates | doubled | no significant differences |

— paper PMC5703966, “Systemic clearance and brain distribution of carbazole-based cyanine compounds as Alzheimer’s disease drug candidates” (Scientific Reports, 2017)
